Results taken from patent US12410155B2, “Salt form and crystal form of tetrahydrocyclohepta indazole compound” (Zhejiang Yangli Pharmaceutical Technology Co., Ltd., priority 2021, dated 2025).
Read-outs that look alike come from different tables or passages of the source.

Molecular target: T1, ERα (Homo sapiens, UniProt P03372)
T1 construct: degradation effects on ERα in various breast cancer cell lines; endogenous in cells; host or cells: MCF-7, T-47D, CAMA-1
T1 sequence (P03372 1-595): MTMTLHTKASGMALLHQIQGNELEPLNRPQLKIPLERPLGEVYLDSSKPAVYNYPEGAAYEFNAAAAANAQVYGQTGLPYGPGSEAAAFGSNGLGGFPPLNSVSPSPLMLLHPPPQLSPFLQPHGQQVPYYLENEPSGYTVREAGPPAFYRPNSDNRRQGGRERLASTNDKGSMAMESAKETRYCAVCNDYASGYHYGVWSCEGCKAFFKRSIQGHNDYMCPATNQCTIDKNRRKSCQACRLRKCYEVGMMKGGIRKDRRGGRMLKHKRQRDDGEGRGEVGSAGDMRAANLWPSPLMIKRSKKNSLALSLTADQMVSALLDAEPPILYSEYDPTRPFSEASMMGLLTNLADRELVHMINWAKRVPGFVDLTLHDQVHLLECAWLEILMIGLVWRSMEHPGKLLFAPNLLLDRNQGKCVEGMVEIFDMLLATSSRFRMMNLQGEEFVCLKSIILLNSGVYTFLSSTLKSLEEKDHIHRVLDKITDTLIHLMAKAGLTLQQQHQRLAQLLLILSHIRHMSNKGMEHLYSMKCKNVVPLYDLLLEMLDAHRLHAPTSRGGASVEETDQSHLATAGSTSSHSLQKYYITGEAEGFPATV
Test: ERα degradation assay (ICW) in MCF-7, T-47D and CAMA-1 cells
Type: cell-based
Conditions: 4 hours, read-out: IC50 (nM), degradation effect on ERα
Procedure: (3) ERα Degradation Assay in MCF-7, T-47D, and CAMA-1 Cells
• 1) The complete culture medium was aspirated from the culture flask, followed by the addition of an appropriate amount of trypsin for rinsing. The trypsin solution was then aspirated to remove residual serum. • 2) Subsequently, an appropriate amount of trypsin was added for a second rinse and aspirated. The culture flask was placed in an incubator for 2-3 minutes, then removed, and gently agitated to detach the cells. • 3) The cells were resuspended in fresh complete culture medium and counted using a cell counter. • 4) The cell suspension was prepared according to the required plating density. • 5) A volume of 30.0 μL of the cell suspension was added to each well of a 384-well plate. • 6) The experimental plate was placed in a centrifuge and centrifuged at 1000 rpm for 1 minute. • 7) The experimental plate was then incubated overnight in a cell incubator. • 8) According to the sample addition diagram of experimental plate (refer to 3.5.1), 20.0 μL of the diluted test sample was added to each well. […] The plate was incubated at 4° C. overnight. • 19) The primary antibody solution in the plate was discarded, and the plate was washed five times with PBS using a multidrop. • 20) A mixture of 25 μL of secondary antibody and DRAQ5 was added to each well, and incubated at room temperature for 1 hour. • 21) The plate was washed five times with PBS using a multidrop. • 22) The plate was washed with ddH2O twice, and patted dry. • 23) The plate was subsequently read using the Odyssey infrared imaging system. […]
The IC50 values were calculated using GraphPad Prism 7.0, a data analysis software.
This experiment evaluated the effect of compound of formula (I) on the expression of ERα protein in MCF-7, T-47D, and CAMA-1 cells. The expression levels of ERα protein were detected using the ICW assay after 4 hours of drug treatment.

FCCCN1CC[C@H](Nc2cnc(C3=C(CC(F)(F)F)CCCc4c3ccc3[nH]nc(F)c43)cn2)C1 [Compound of formula (I)]
DC50 (CAMA-1 cells): 1.25 nM
DC50 (MCF-7 cells): 0.235 nM
DC50 (T-47D cells): 0.78 nM
